Consider 43 molecules from patent publication US9376380B2 (University of Pittsburgh—Of the Commonwealth System of …, priority 2011, dated 2016).

Bounds are passed on as bounds.

For one assay, the target named is CB2 receptor (Homo sapiens, UniProt P34972). Nature of the assay: [3H]CP-55,940 radioligand competition binding, CB2. Also noted: host or cells: cell membrane preparations.
CB2 receptor, sequence (P34972 whole entry): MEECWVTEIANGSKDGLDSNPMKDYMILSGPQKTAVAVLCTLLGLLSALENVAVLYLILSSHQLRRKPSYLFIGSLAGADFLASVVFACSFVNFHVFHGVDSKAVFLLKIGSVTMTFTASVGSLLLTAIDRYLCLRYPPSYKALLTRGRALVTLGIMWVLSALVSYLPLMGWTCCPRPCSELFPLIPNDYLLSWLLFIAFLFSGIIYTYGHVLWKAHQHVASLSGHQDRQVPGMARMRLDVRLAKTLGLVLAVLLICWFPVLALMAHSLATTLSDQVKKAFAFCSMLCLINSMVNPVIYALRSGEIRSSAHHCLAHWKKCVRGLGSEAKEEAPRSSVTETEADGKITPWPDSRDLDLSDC
Settings: not given
On the technique in general: In a radioligand displacement assay an active substance lowers the binding of a labelled ligand.
The Ki is the dissociation constant of the complex between target and ligand, obtained from inhibition or displacement. `CCN(CC)c1ccc(CN(C23CC4CC(CC(C4)C2)C3)S(=O)(=O)c2ccc(C(C)C)cc2)cc1` [Compound 62, N-((3s,5s,7s)-Adamantan-1-yl)-N-(4-(diethylamino)benzyl)-4-isopropylbenzenesulfonamide] yielded a Ki of 0.457 µM.

Still in this assay, the particulars now being: Ki(CB1)/Ki(CB2) ratio.
With `O=C(Cc1ccc(Cl)cc1)NC(NC(=O)Cc1ccc(Cl)cc1)c1ccccc1C(F)(F)F` [Compound 27, N,N′-((2-(trifluoromethyl)phenyl)methylene)bis(2-(4-chlorophenyl)acetamide)], the “SI: selectivity index for CB2” value was above 127. The same measure, in the same setting: the result for `O=C(Cc1ccccc1)NC(NC(=O)Cc1ccccc1)c1ccc(C(F)(F)F)cc1` [Compound 14, N,N′-((4-(trifluoromethyl)phenyl)methylene)bis(2-phenylacetamide)] reads above 34; that for `CCN(CC)c1ccc(CNC23CC4CC(CC(C4)C2)C3)cc1` [B, (3s,5s,7s)-N-(4-(Diethylamino)benzyl)adamantan-1-amine], 130; that for `COc1ccc(C(NC(=O)Cc2ccccc2)NC(=O)Cc2ccccc2)cc1` [Compound 10, N,N′-((4-methoxyphenyl)methylene)bis(2-phenylacetamide)], above 26. Take `CCCCN(CCCC)c1ccc(C(NC(=O)Cc2ccccc2)NC(=O)Cc2ccccc2)cc1` [Compound 18, N,N′-((4-(dibutylamino)phenyl)methylene)bis(2-phenylacetamide)]: the “SI: selectivity index for CB2” value is recorded as above 90. On to `CCN(CC)c1ccc(C(NC(=O)c2ccccc2)NC(=O)c2ccccc2)cc1` [Compound 49, N,N′-((4-(Diethylamino)phenyl)methylene)dibenzamide], for which the “SI: selectivity index for CB2” value is above 29. Take `O=C(Cc1ccc(Cl)cc1)NC(NC(=O)Cc1ccc(Cl)cc1)c1ccc(Cl)cc1` [Compound 24, N,N′-((4-chlorophenyl)methylene)bis(2-(4-chlorophenyl)acetamide)]: the “SI: selectivity index for CB2” value is recorded as above 130.

Turning to `CCCCCCCC(=O)NC(NC(=O)CCCCCCC)c1ccc(N(CC)CC)cc1` [Compound 54, N,N′-((4-(diethylamino)phenyl)methylene)dioctanamide], the “SI: selectivity index for CB2” value is listed as above 136.

Still in this assay, the particulars now being: [3H]CP-55,940 displacement; read-out: Ki (CB2).
Turning to `CCN(CC)c1ccc(CN(c2ccc(C)cc2)S(=O)(=O)c2ccc(C)cc2)cc1` [Compound 94, N-(4-(Diethylamino)benzyl)-4-methyl-N-(p-tolyl)benzenesulfonamide], the Ki is 0.0054 µM. For the molecule `O=C(Cc1ccc(C(F)(F)F)cc1)NC(NC(=O)Cc1ccc(C(F)(F)F)cc1)c1ccccc1F` [Compound 31, N,N′-((2-fluorophenyl)methylene)bis(2-(4-(trifluoromethyl)phenyl)acetamide)], the Ki was above 20 µM. Still for that read-out and setting: for `O=C(Cc1ccccc1)NC(/C=C/c1ccccc1)NC(=O)Cc1ccccc1` [Compound 39, (E)-N,N′-(3-phenylprop-2-ene-1,1-diyl)bis(2-phenylacetamide)] the value was 5.68 µM; for `CCCCCCCN(Cc1ccc(N(CC)CC)cc1)S(=O)(=O)Cc1ccccc1` [Compound 74, N-(4-(Diethylamino)benzyl)-N-heptyl-1-phenylmethanesulfonamide], 0.273 µM; for `O=C(Cc1ccccc1)NC(NC(=O)Cc1ccccc1)c1ccc(F)cc1` [Compound 5, N,N′-((4-fluorophenyl)methylene)bis(2-phenylacetamide)], 10.9 µM.

Take `CCN(CC)c1ccc(CNc2ccc(Cl)cc2)cc1` [G, 4-(((4-Chlorophenyl)amino)methyl)-N,N′-diethylaniline]: the Ki turned out to be 6.74 µM. On to `CCCCCCCN(Cc1ccc(N(CC)CC)cc1)S(=O)(=O)c1ccc(F)cc1` [Compound 72, N-(4-(Diethylamino)benzyl)-4-fluoro-N-heptylbenzenesulfonamide], for which the Ki worked out at 1.1 µM. As for `CCCCCCCN(Cc1ccc(N(CC)CC)cc1)S(=O)(=O)c1ccc(C(C)C)cc1` [Compound 69, N-(4-(Diethylamino)benzyl)-N-heptyl-4-isopropylbenzenesulfonamide], the Ki worked out at 13 µM. On the same count and under the same terms, for `CCCCCC(NC(=O)Cc1ccccc1)NC(=O)Cc1ccccc1` [Compound 41, N,N′-(hexane-1,1-diyl)bis(2-phenylacetamide)] the value was 18.2 µM; for `O=C(Cc1ccc(C(F)(F)F)cc1)NC(NC(=O)Cc1ccc(C(F)(F)F)cc1)c1ccc(C(F)(F)F)cc1` [Compound 36], above 20 µM; for `CCCCCCCN(Cc1ccc(N(CC)CC)cc1)S(=O)(=O)c1ccc(OC(C)C)cc1` [Compound 71, N-(4-(Diethylamino)benzyl)-N-heptyl-4-isopropoxybenzenesulfonamide], above 20 µM.

As to `Cc1ccc(C(NC(=O)Cc2ccc(C(F)(F)F)cc2)NC(=O)Cc2ccc(C(F)(F)F)cc2)cc1` [Compound 34, N,N′-(p-tolylmethylene)bis(2-(4-(trifluoromethyl)phenyl)acetamide)], the Ki is above 20 µM. On to `O=C(Cc1ccc(Cl)cc1)NC(NC(=O)Cc1ccc(Cl)cc1)c1ccccc1C(F)(F)F` [Compound 27, N,N′-((2-(trifluoromethyl)phenyl)methylene)bis(2-(4-chlorophenyl)acetamide)], for which the Ki came to 0.158 µM. As for `O=C(Cc1ccccc1)NC(NC(=O)Cc1ccccc1)c1ccc([N+](=O)[O-])cc1` [Compound 15, N,N′-((4-nitrophenyl)methylene)bis(2-phenylacetamide)], the inhibitory constant (Ki) was above 20 µM. Same read-out and setting: the result for `O=C(Cc1ccccc1)NC(NC(=O)Cc1ccccc1)c1ccc(C(F)(F)F)cc1` [Compound 14, N,N′-((4-(trifluoromethyl)phenyl)methylene)bis(2-phenylacetamide)] reads 0.596 µM. `CCN(CC)c1ccc(CNC23CC4CC(CC(C4)C2)C3)cc1` [B, (3s,5s,7s)-N-(4-(Diethylamino)benzyl)adamantan-1-amine]: the Ki is 20 µM. For the molecule `COc1ccc(C(NC(=O)Cc2ccccc2)NC(=O)Cc2ccccc2)cc1` [Compound 10, N,N′-((4-methoxyphenyl)methylene)bis(2-phenylacetamide)], the Ki was determined as 0.783 µM. Still for that read-out and setting: for `CCCCCCCN(Cc1ccc(N(CC)CC)cc1)C(=O)C1CCCCC1` [Compound 79, N-(4-(Diethylamino)benzyl)-N-heptylcyclohexanecarboxamide] the value was 0.212 µM; for `CCCCC(NC(=O)Cc1ccccc1)NC(=O)Cc1ccccc1` [Compound 40, N,N′-(pentane-1,1-diyl)bis(2-phenylacetamide)], 36 µM.

In the case of `CCCCN(CCCC)c1ccc(C(NC(=O)Cc2ccccc2)NC(=O)Cc2ccccc2)cc1` [Compound 18, N,N′-((4-(dibutylamino)phenyl)methylene)bis(2-phenylacetamide)], the Ki stood at 0.221 µM.

On to `CCN(CC)c1ccc(CN(c2ccc(Cl)cc2)S(=O)(=O)c2ccc(C(C)C)cc2)cc1` [Compound 87, N-(4-Chlorophenyl)-N-(4-(diethylamino)benzyl)-4-isopropylbenzenesulfonamide], for which the Ki was 0.222 µM. Turning to `O=C(Cc1ccc(Cl)cc1)NC(NC(=O)Cc1ccc(Cl)cc1)c1ccc(F)cc1` [Compound 23, N,N′-((4-fluorophenyl)methylene)bis(2-(4-chlorophenyl)acetamide)], the inhibition constant Ki is above 20 µM. Consider `CCN(CC)c1ccc(CN(C23CC4CC(CC(C4)C2)C3)S(=O)(=O)c2ccc(OC)cc2)cc1` [Compound 59, N-(3r)-Adamantan-1-yl)-N-(4-(diethylamino)benzyl)-4-methoxybenzenesulfonamide], for which the Ki turned out to be 0.137 µM. With `CCN(CC)c1ccc(C(NC(=O)c2ccccc2)NC(=O)c2ccccc2)cc1` [Compound 49, N,N′-((4-(Diethylamino)phenyl)methylene)dibenzamide], the Ki amounted to 0.688 µM.

As for `CCCCCCCN(Cc1ccc(N(CC)CC)cc1)C(=O)Cc1ccccc1` [Compound 76, N-(4-(Diethylamino)benzyl)-N-heptyl-2-phenylacetamide], the Ki worked out at 1.31 µM. Same read-out and setting: the result for `O=C(Cc1ccc(C(F)(F)F)cc1)NC(NC(=O)Cc1ccc(C(F)(F)F)cc1)c1ccc(Cl)cc1` [Compound 33, N,N′-((4-chlorophenyl)methylene)bis(2-(4-(trifluoromethyl)phenyl)acetamide)] reads above 20 µM; that for `O=C(Cc1ccccc1)NC(NC(=O)Cc1ccccc1)c1ccccc1C(F)(F)F` [Compound 13, N,N′-((2-(trifluoromethyl)phenyl)methylene)bis(2-phenylacetamide)], 11.8 µM. Consider `O=C(Cc1ccc(Cl)cc1)NC(NC(=O)Cc1ccc(Cl)cc1)c1ccc([N+](=O)[O-])cc1` [Compound 29, N,N′-((4-nitrophenyl)methylene)bis(2-(4-chlorophenyl)acetamide)], for which the Ki is above 20 µM. With `O=C(Cc1ccc(C(F)(F)F)cc1)NC(NC(=O)Cc1ccc(C(F)(F)F)cc1)c1ccccc1` [Compound 30, N,N′-(phenylmethylene)bis(2-(4-(trifluoromethyl)phenyl)acetamide)], the Ki is above 20 µM. With `O=C(Cc1ccc(Cl)cc1)NC(NC(=O)Cc1ccc(Cl)cc1)c1ccc(Cl)cc1` [Compound 24, N,N′-((4-chlorophenyl)methylene)bis(2-(4-chlorophenyl)acetamide)], the Ki came out at 0.154 µM.

Turning to `CCCCCCCC(=O)NC(NC(=O)CCCCCCC)c1ccc(N(CC)CC)cc1` [Compound 54, N,N′-((4-(diethylamino)phenyl)methylene)dioctanamide], the Ki was found to be 0.146 µM. Regarding `CCCCCCCN(Cc1ccc(N(CC)CC)cc1)C(=O)c1ccc(N(C)C)cc1` [Compound 78, N-(4-(Diethylamino)benzyl)-4-(dimethylamino)-N-heptylbenzamide], the Ki stood at 1.28 µM. Consider `O=C(Cc1ccccc1)NC(NC(=O)Cc1ccccc1)c1ccc(Cl)cc1` [Compound 6, N,N′-((4-chlorophenyl)methylene)bis(2-phenylacetamide)], for which the Ki is 3.08 µM. As for `CCCCCCCN(Cc1ccc(N(CC)CC)cc1)S(=O)(=O)c1ccc(OC)cc1` [Compound 70, N-(4-(Diethylamino)benzyl)-N-heptyl-4-methoxybenzenesulfonamide], the Ki came out at 5.19 µM. For the molecule `O=C(Cc1ccc(C(F)(F)F)cc1)NC(NC(=O)Cc1ccc(C(F)(F)F)cc1)c1ccc(F)cc1` [Compound 32, N,N′-((4-fluorophenyl)methylene)bis(2-(4-(trifluoromethyl)phenyl)acetamide)], the Ki was above 20 µM.

For the molecule `O=C(Cc1ccccc1)NC(NC(=O)Cc1ccccc1)c1ccccc1F` [Compound 3, N,N′-((2-fluorophenyl)methylene)bis(2-phenylacetamide)], the Ki stood at 35.3 µM. With `O=C(Cc1ccccc1)NC(NC(=O)Cc1ccccc1)c1ccc(Br)cc1` [Compound 7, N,N′-((4-bromophenyl)methylene)bis(2-phenylacetamide)], the inhibition constant (Ki) amounted to 2.23 µM. In the case of `O=C(Cc1ccccc1)NC(NC(=O)Cc1ccccc1)c1ccccc1` [Compound 2, N,N′-(phenylmethylene)bis(2-phenylacetamide)], the Ki came to 9.93 µM. For `O=C(Cc1ccccc1)NC(Cc1ccccc1)NC(=O)Cc1ccccc1` [Compound 37, N,N′-(2-phenylethane-1,1-diyl)bis(2-phenylacetamide)], the Ki was above 20 µM. With `CCCCCCCN(Cc1ccc(N(CC)CC)cc1)S(=O)(=O)c1ccc(Cl)cc1` [Compound 73, 4-Chloro-N-(4-(diethylamino)benzyl)-N-heptylbenzenesulfonamide], the Ki amounted to 6.74 µM. Turning to `CCCCCCCC(=O)N(CCCCCCC)Cc1ccc(N(CC)CC)cc1` [Compound 80, N-(4-(Diethylamino)benzyl)-N-heptyloctanamide], the Ki was above 20 µM. Same read-out and setting: the result for `CCCCCCCN(Cc1ccc(N(CC)CC)cc1)S(=O)(=O)CCCC` [Compound 75, N-(4-(Diethylamino)benzyl)-N-heptylbutane-1-sulfonamide] reads 0.68 µM.
